In patent US12662491B2 (Redona Therapeutics, Inc., priority 2020, dated 2026) one finds IC50 data, which are given here for 20 compounds.

One assay deals with T1, Zcchc11 enzyme (Homo sapiens, UniProt Q5TAX3).
T1 construct: made in house; host or cells: HEK293 cells (Zcchc11); E. coli Rosetta II (LIN28A)
T1 sequence (Q5TAX3 212-1420): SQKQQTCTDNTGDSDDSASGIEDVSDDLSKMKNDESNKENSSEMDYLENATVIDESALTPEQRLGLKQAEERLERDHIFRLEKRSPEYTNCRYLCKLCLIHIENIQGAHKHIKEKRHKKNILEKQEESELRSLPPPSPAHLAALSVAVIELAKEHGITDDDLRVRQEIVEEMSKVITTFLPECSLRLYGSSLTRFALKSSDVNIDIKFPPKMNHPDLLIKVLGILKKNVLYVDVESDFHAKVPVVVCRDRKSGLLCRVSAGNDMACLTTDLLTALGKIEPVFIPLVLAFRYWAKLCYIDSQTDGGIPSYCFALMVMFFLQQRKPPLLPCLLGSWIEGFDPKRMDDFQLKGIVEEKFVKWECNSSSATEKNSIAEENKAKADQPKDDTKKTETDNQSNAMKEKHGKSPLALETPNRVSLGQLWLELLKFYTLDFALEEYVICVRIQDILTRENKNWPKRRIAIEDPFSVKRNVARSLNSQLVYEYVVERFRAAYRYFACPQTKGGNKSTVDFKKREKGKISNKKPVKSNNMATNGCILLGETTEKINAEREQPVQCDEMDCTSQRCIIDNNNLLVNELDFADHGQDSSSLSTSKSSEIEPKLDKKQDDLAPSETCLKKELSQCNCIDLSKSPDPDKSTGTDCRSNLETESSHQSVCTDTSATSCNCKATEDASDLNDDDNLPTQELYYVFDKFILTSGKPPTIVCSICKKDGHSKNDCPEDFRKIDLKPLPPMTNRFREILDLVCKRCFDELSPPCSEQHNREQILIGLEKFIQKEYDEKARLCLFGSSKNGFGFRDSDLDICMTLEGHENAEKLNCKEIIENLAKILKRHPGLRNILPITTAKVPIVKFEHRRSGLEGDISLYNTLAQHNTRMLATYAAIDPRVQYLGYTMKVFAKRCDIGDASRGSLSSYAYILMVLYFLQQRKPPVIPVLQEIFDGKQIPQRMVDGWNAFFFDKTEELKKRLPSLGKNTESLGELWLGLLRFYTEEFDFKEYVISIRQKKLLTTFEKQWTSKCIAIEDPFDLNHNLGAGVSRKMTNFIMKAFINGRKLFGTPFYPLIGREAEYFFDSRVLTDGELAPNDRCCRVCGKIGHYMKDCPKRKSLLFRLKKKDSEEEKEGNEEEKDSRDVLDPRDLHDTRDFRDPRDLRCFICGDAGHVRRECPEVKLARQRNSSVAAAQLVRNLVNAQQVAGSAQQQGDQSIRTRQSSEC
Nature of the assay: TUTase assay (Zcchc11 assay, Lin28a-dependent polyuridylation of pre-let-7). Type of assay: biochemical. To be noted: Lin28a-dependent Zcchc11 (Z11) TUTase activity; read-out: Potency Lin28a-dep Z11 IC50. The gist of the method:
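Polyuridylation measured as fluorescein loss when a rhodamine-labelled A20 probe anneals to U-tails added to fluorescein pre-let-7 (2 nM). Reaction: truncated Zcchc11 0.2 nM, E. coli-made LIN28A 10 nM, UTP 5 uM, HEPES pH 7.3, room temperature. Initial rates fitted to four-parameter IC50.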
As a reminder, the IC50 is the concentration at which inhibition is half-maximal. `Cc1cccnc1OC[C@H]1CCCN1c1cc2c(cc1F)c(=O)c(C(=O)O)cn2-c1ccc(O)cc1` [Compound 119, (R)-6-fluoro-1-(4-hydroxy-phenyl)-7-(2-(((3-methylpyridin-2-yl)oxy)methyl)pyrrolidin-1-yl)-4-oxo-1,4-dihydro-quinoline-3-carboxylic acid]: the IC50 is not above 1000 nM.
On to `O=C(O)c1cn(-c2ccc(F)c(F)c2)c2cc(N3CCC[C@@H]3COc3ccccn3)c(F)cc2c1=O` [Compound 149, (R)-1-(3,4-difluorophenyl)-6-fluoro-4-oxo-7-(2-((pyridin-2-yloxy)methyl)pyrrolidin-1-yl)-1,4-dihydro-quinoline-3-carboxylic acid], for which the IC50 fell in the range of 1000 to 10000 nM.
The same measure, in the same setting: in the case of `O=C(O)c1cn(C2CC2)c2cc(N3CCC[C@@H]3COc3ccccn3)c(Cl)cc2c1=O` [Compound 111, (R)-6-chloro-1-cyclopropyl-4-oxo-7-(2-((pyridin-2-yloxy)methyl)pyrrolidin-1-yl)-1,4-dihydro-quinoline-3-carboxylic acid] it was 1000 to 10000 nM; in that of `O=C(O)c1cn(-c2ccccc2)c2cc(N3CCC[C@@H]3COc3ccccn3)c(F)cc2c1=O` [Compound 85, (R)-6-fluoro-4-oxo-1-phenyl-7-(2-((pyridin-2-yloxy)methyl)pyrrolidin-1-yl)-1,4-dihydro-quinoline-3-carboxylic acid], not above 1000 nM; in that of `COc1cccnc1OC[C@H]1CCCN1c1cc2c(cc1F)c(=O)c(C(=O)O)cn2-c1ccccc1` [Compound 99, (R)-6-fluoro-7-(2-(((3-methoxy-pyridin-2-yl)oxy)methyl)pyrrolidin-1-yl)-4-oxo-1-phenyl-1,4-dihydro-quinoline-3-carboxylic acid], not above 1000 nM.
Turning to `O=C(O)c1cn(-c2ccccc2)c2cc(N3CCC[C@@H]3COc3ncccc3Cl)c(Cl)cc2c1=O` [Compound 109, (R)-6-chloro-7-(2-(((3-chloropyridin-2-yl)oxy)methyl)pyrrolidin-1-yl)-4-oxo-1-phenyl-1,4-dihydro-quinoline-3-carboxylic acid], the IC50 is not above 1000 nM.
Same read-out and setting: in the case of `COCCN(C)C1CN(c2ccc(-n3cc(C(=O)O)c(=O)c4cc(F)c(N5CCC[C@@H]5COc5nc(OC)ccc5Cl)cc43)cn2)C1` [Compound 302, (R)-7-(2-(((3-chloro-6-methoxy-pyridin-2-yl)oxy)methyl)pyrrolidin-1-yl)-6-fluoro-1-(6-(3-((2-methoxyethyl) (methyl)amino)azetidin-1-yl)pyridin-3-yl)-4-oxo-1,4-dihydro-quinoline-3-carboxylic acid] it was not above 1000 nM; in that of `O=C(O)c1cn(-c2ccccc2)c2cc(N3CCC[C@@H]3COc3ncccc3C(F)(F)F)c(F)cc2c1=O` [Compound 100, (R)-6-fluoro-4-oxo-1-phenyl-7-(2-(((3-(trifluoro-methyl)pyridin-2-yl)oxy)methyl)pyrrolidin-1-yl)-1,4-dihydro-quinoline-3-carboxylic acid], not above 1000 nM.
Regarding `Cc1ccc(OC[C@H]2CCCN2c2cc3c(cc2F)c(=O)c(C(=O)O)cn3-c2ccccc2)nc1` [Compound 93, (R)-6-fluoro-7-(2-(((5-methyl-pyridin-2-yl)oxy)methyl)pyrrolidin-1-yl)-4-oxo-1-phenyl-1,4-dihydro-quinoline-3-carboxylic acid], the IC50 is not above 1000 nM.
As for `COc1ccc(Cl)c(OC[C@H]2C[C@H]3C[C@H]3N2c2cc3c(cc2Cl)c(=O)c(C(=O)O)cn3-c2ccc(N(C)C)nc2)n1` [Compound 341, 6-Chloro-7-[(1R,3R,5R)-3-{[(3-chloro-6-methoxy-pyridin-2 yl)oxy]methyl}-2-azabicyclo [3.1.0]hexan-2-yl]-1-[6-(dimethyl-amino)pyridin-3-yl]-4-oxoquinoline-3-carboxylic acid], the IC50 is not above 1000 nM.
Take `O=C(O)c1cn(-c2ccc(O)c(Cl)c2)c2cc(N3CCC[C@@H]3COc3ncccc3Cl)c(Cl)cc2c1=O` [Compound 131, (R)-6-chloro-1-(3-chloro-4-hydroxy-phenyl)-7-(2-(((3-chloropyridin-2-yl)oxy)methyl)pyrrolidin-1-yl)-4-oxo-1,4-dihydro-quinoline-3-carboxylic acid]: the IC50 is not above 1000 nM.
As for `Cc1cccnc1OC[C@H]1CCCN1c1cc2c(cc1F)c(=O)c(C(=O)O)cn2-c1ccc(F)c(O)c1` [Compound 121, (R)-6-fluoro-1-(4-fluoro-3-hydroxy-phenyl)-7-(2-(((3-methylpyridin-2-yl)oxy)methyl)pyrrolidin-1-yl)-4-oxo-1,4-dihydro-quinoline-3-carboxylic acid], the IC50 is not above 1000 nM.
`NCCOc1cccnc1OC[C@H]1CCCN1c1cc2c(cc1Cl)c(=O)c(C(=O)O)cn2-c1ccc(Br)nc1` (racemic) [Compound 313, rac-(R)-7-(2-(((3-(2-aminoethoxy)pyridin-2-yl)oxy)methyl)pyrrolidin-1-yl)-1-(6-bromopyridin-3-yl)-6-chloro-4-oxo-1,4-dihydro-quinoline-3-carboxylic acid]: the IC50 is not above 1000 nM.

Still in this assay, the particulars now being: Lin28a-dependent Zcchc11 (Z11) TUTase assay; read-out: Potency Lin28a-dep Z11 IC50.
With `CN(C)C1CN(c2ccc(-n3cc(C(=O)O)c(=O)c4cc(Cl)c(N5C[C@H](O)C[C@@H]5COc5ncccc5Cl)cc43)cn2)C1` [Example 602, 6-chloro-7-((2R,4R)-2-(((3-chloroypridin-2-yl)oxy)methyl)-4-hydroxypyrrolidin-1-yl)-1-(6-(3-(dimethylamino)azetidin-1-yl)pyridin-3-yl)-4-oxo-1,4-dihydroquinoline-3-carboxylic acid], the IC50 is not above 1000 nM.
On the same count and under the same terms, the result for `CN(C)C1CN(c2ccc(-n3cc(C(=O)O)c(=O)c4cc(Cl)c(N5CCC[C@]5(C)COc5ncccc5Cl)cc43)cn2)C1` [Example 627, (R)-6-chloro-7-(2-(((3-chloropyridin-2-yl)oxy)methyl)-2-methylpyrrolidin-1-yl)-1-(6-(3-(dimethylamino)azetidin-1-yl)pyridin-3-yl)-4-oxo-1,4-dihydroquinoline-3-carboxylic acid] reads not above 1000 nM; that for `COCCN1CC2(CC(n3cc(C(=O)O)c(=O)c4cc(Cl)c(N5CCC[C@@H]5COc5ncccc5Cl)cc43)C2)C1` [Example 482, (R)-6-chloro-7-(2-(((3-chloropyridin-2-yl)oxy)methyl)pyrrolidin-1-yl)-1-(2-(2-methoxy-ethyl)-2-azaspiro[3.3]heptan-6-yl)-4-oxo-1,4-dihydroquinoline-3-carboxylic acid], 1000 to 10000 nM; that for `O=C(O)c1cn(-c2ccc(C3COC3)nc2)c2cc(N3CCC[C@@H]3COc3ncccc3Cl)c(Cl)cc2c1=O` [Example 605, (R)-6-chloro-7-(2-(((3-chloropyridin-2-yl)oxy)methyl)pyrrolidin-1-yl)-1-(6-(oxetan-3-yl)pyridin-3-yl)-4-oxo-1,4-dihydroquinoline-3-carboxylic acid], not above 1000 nM.
For `O=C(O)c1cn(-c2ccc(C3CNC3)nc2)c2cc(N3CCC[C@@H]3COc3ncccc3Cl)c(Cl)cc2c1=O` [Example 606, (R)-1-(6-(azetidin-3-yl)pyridin-3-yl)-6-chloro-7-(2-(((3-chloropyridin-2-yl)oxy)methyl)pyrrolidin-1-yl)-4-oxo-1,4-dihydroquinoline-3-carboxylic acid], the IC50 was not above 1000 nM.
Still for that read-out and setting: the result for `O=C(O)c1cn(-c2ccncc2)c2cc(N3CCC[C@@H]3COc3ncccc3Cl)c(Cl)cc2c1=O` [Example 490, (R)-6-chloro-7-(2-(((3-chloropyridin-2-yl)oxy)methyl)pyrrolidin-1-yl)-4-oxo-1-(pyridin-4-yl)-1,4-dihydroquinoline-3-carboxylic acid] reads not above 1000 nM; that for `CN(C)C1CN(c2ccc(-n3cc(C(=O)O)c(=O)c4cc(Cl)c(N5CCC6CC65COc5ncccc5Cl)cc43)cn2)C1` (centres unmarked) [Example 635, 6-chloro-7-(1-(((3-chloropyridin-2-yl)oxy)methyl)-2-azabicyclo[3.1.0]hexan-2-yl)-1-(6-(3-(dimethylamino)azetidin-1-yl)pyridin-3-yl)-4-oxo-1,4-dihydroquinoline-3-carboxylic acid], not above 1000 nM.
